What was measured:
Assay type in all cases: cell-based, human
[1] = tested on: Class 1 ARN-509- and MDV3100-resistant cell lines; assay: Proliferation assay (CellTiter-Glo), agonist and antagonist mode; conditions: for Ligand independent growth of Class 1 cells in presence of compound: absence of added androgens
[2] = tested on: Class 2 MDV3100- and ARN-509-resistant cell lines; assay: as above; conditions: for Antagonism of androgen dependent growth of Class 2 resistant lines: antagonist mode
LNCaP cells [3] = assay: Transcriptional reporter assay (probasin-luciferase); conditions: for Agonist Transcriptional Reporter Assay (% Max Activity): [Antagonists] = 50 μM; for Antagonist Transcriptional Reporter Assay (% Max Activity): [Antagonists] = 50 μM in presence of R1881
Description: (§1) With the exception of the LNCaP/AR(cs)-Luc cells that contain an integrated androgen responsive reporter, cells were transiently transfected using Lipofectin® (Life Technologies) according to the manufacturer's protocol. […] Following transfection, the cells were incubated for 4 hours.
(§2) Following 48 hour incubation the medium was removed and the cells were lysed in 40 μL of lysis buffer (25 mM Tris Phosphate, 2 mM CDTA, 10% Glycerol, 0.5% Triton X-100, 2 mM DTT).

LNCaP/AR(cs) cells = assay: as above; conditions: for Agonist Transcriptional Reporter Assay (% Max Activity): [Antagonists] = 50 μM; for Antagonist Transcriptional Reporter Assay (% Max Activity): [Antagonists] = 50 μM in presence of R1881
Description: as §1, §2

[4] = tested on: Class 1 resistant cell lines; assay: as above; conditions: for Agonist Transcriptional Reporter Assay (% Max Activity) / Antagonist Transcriptional Reporter Assay (% Max Activity): Class 1; for Agonist Transcriptional Reporter Assay (% Max Activity): [Antagonists] = 50 μM; for Antagonist Transcriptional Reporter Assay (% Max Activity): [Antagonists] = 50 μM in presence of R1881; for Antagonist activity in probasin-luciferase reporter, Class 1 resistant cells: decrease in luciferase activity relative to no treatment controls
Description: as §1, §2

LNCaP cells [5] = assay: Endogenous gene transcriptional assay (real-time PCR of androgen responsive genes); conditions: 1 nM R1881 or 30 μM compound, vehicle=1.00
Description: (§3) Total RNA was isolated using the Aurum™ total RNA isolation kit (BIO-RAD, Hercules, Calif.). RNA (1 μg) was reverse transcribed using the iScript cDNA synthesis kit (BIO-RAD, Hercules, Calif.) to produce cDNA. Real-time PCR was performed using the Applied Biosystems 7900HT instrument and SYBR Green PCR Master Mix (Applied Biosystems, Foster City, Calif.). PCR reactions were performed in 6 μL according to the manufacturer's protocol and a thermocycle protocol of 95° C. for 10 minutes followed by 40 cycles of 95° C. for 15 seconds and 58° C. for 1 minute. Androgen responsive gene (PSA, SLUG, TMPRSS2, STEAP4, FKBP5, ORM1, NOV, FASN, NKX3.1, AMIGO2, BDNF, CAMK2N1, HPGD, NCAPD3, PLD1) expression was normalized to GAPDH expression and expressed relative to vehicle treatment of the parental cell line.
(§4) Gene expression was normalized to GAPDH as described above.

LNCaP ARN-509r1 cells = assay: as above; conditions: 1 nM R1881 or 30 μM compound, vehicle=1.00
Description: as §3, §4

LNCaP ARN-509r2 cells = assay: as above; conditions: 1 nM R1881 or 30 μM compound, vehicle=1.00
Description: as §3, §4

LNCaP/AR-Luc cells = assay: as above; conditions: 1 nM R1881 or 30 μM compound, vehicle=1.00
Description: as §3, §4

[6] = Homo sapiens, 168 h, read-out: Antagonist Proliferation Assay (% Viability)

SMILES: CNC(=O)c1ccc(N2C(=S)N(c3cnc(C#N)c(C(F)(F)F)c3)C(=O)C23CCC3)cc1F [ARN-509]
- Effect on growth inhibitory activity of R1881 in Class 1 cells [1]: antagonized
- viability at 0.0001 µM [1, 6]: > 30%
- Ligand independent growth of Class 1 cells in presence of compound [1]: unaltered
- Agonist Proliferation Assay (% Viability) ([2]; Class 2, [Antagonists] = 10 μM, 7 days): ++ (‘++’ = >30)
- viability at 0.0001 µM [2, 6]: > 30%
- Stimulation of proliferation in Class 2 cell lines ([2]; agonist mode): can stimulate proliferation
- Antagonism of androgen dependent growth of Class 2 resistant lines [2]: only partially antagonized
- Agonist Transcriptional Reporter Assay (% Max Activity) (LNCaP cells [3]): + (‘+’ = <5)
- Antagonist Transcriptional Reporter Assay (% Max Activity) (LNCaP cells [3]): + (‘+’ = <5)
- Agonist Transcriptional Reporter Assay (% Max Activity) (LNCaP/AR(cs) cells): + (‘+’ = <5)
- Antagonist Transcriptional Reporter Assay (% Max Activity) (LNCaP/AR(cs) cells): + (‘+’ = <5)
- Agonist Transcriptional Reporter Assay (% Max Activity) [4]: + (‘+’ = <5)
- Antagonist Transcriptional Reporter Assay (% Max Activity) [4]: ++ (‘++’ = >5)
- Antagonist activity in probasin-luciferase reporter, Class 1 resistant cells [4]: effective antagonists
- AMIGO2 gene expression (LNCaP cells [5]): 1.12
- BDNF gene expression (LNCaP cells [5]): 1.09
- CAM2KN1 gene expression (LNCaP cells [5]): 1.17
- FASN gene expression (LNCaP cells [5]): 1.34
- FKBP5 gene expression (LNCaP cells [5]): 0.99
- HPGD gene expression (LNCaP cells [5]): 1.48
- NKX3.1 gene expression (LNCaP cells [5]): 0.90
- NOV gene expression (LNCaP cells [5]): 1.73
- ORM1 gene expression (LNCaP cells [5]): 0.71
- PLD1 gene expression (LNCaP cells [5]): 1.09
- PSA gene expression (LNCaP cells [5]): 0.66
- SLUG gene expression (LNCaP cells [5]): 1.27
- STEAP4 gene expression (LNCaP cells [5]): 0.78
- TMPRSS2 gene expression (LNCaP cells [5]): 0.77
- AMIGO2 gene expression (LNCaP ARN-509r1 cells): 0.62
- BDNF gene expression (LNCaP ARN-509r1 cells): 0.90
- CAM2KN1 gene expression (LNCaP ARN-509r1 cells): 0.37
- FASN gene expression (LNCaP ARN-509r1 cells): 1.04
- FKBP5 gene expression (LNCaP ARN-509r1 cells): 2.58
- HPGD gene expression (LNCaP ARN-509r1 cells): 2.36
- NCAPD3 gene expression (LNCaP ARN-509r1 cells): 1.29
- NKX3.1 gene expression (LNCaP ARN-509r1 cells): 6.54
- NOV gene expression (LNCaP ARN-509r1 cells): 1.40
- ORM1 gene expression (LNCaP ARN-509r1 cells): 15.89
- PLD1 gene expression (LNCaP ARN-509r1 cells): 0.33
- PSA gene expression (LNCaP ARN-509r1 cells): 32.67
- SLUG gene expression (LNCaP ARN-509r1 cells): 4.66
- STEAP4 gene expression (LNCaP ARN-509r1 cells): 3.03
- TMPRSS2 gene expression (LNCaP ARN-509r1 cells): 10.20
- AMIGO2 gene expression (LNCaP ARN-509r2 cells): 0.67
- BDNF gene expression (LNCaP ARN-509r2 cells): 1.04
- CAM2KN1 gene expression (LNCaP ARN-509r2 cells): 0.46
- FASN gene expression (LNCaP ARN-509r2 cells): 0.98
- FKBP5 gene expression (LNCaP ARN-509r2 cells): 8.00
- HPGD gene expression (LNCaP ARN-509r2 cells): 1.49
- NKX3.1 gene expression (LNCaP ARN-509r2 cells): 3.73
- NOV gene expression (LNCaP ARN-509r2 cells): 1.39
- ORM1 gene expression (LNCaP ARN-509r2 cells): 3.94
- PLD1 gene expression (LNCaP ARN-509r2 cells): 0.81
- PSA gene expression (LNCaP ARN-509r2 cells): 1.91
- SLUG gene expression (LNCaP ARN-509r2 cells): 1.31
- STEAP4 gene expression (LNCaP ARN-509r2 cells): 1.45
- TMPRSS2 gene expression (LNCaP ARN-509r2 cells): 3.07
- AMIGO2 gene expression (LNCaP/AR-Luc cells): 1.13
- BDNF gene expression (LNCaP/AR-Luc cells): 1.17
- CAM2KN1 gene expression (LNCaP/AR-Luc cells): 1.13
- FASN gene expression (LNCaP/AR-Luc cells): 1.08
- FKBP5 gene expression (LNCaP/AR-Luc cells): 1.16
- HPGD gene expression (LNCaP/AR-Luc cells): 1.88
- NKX3.1 gene expression (LNCaP/AR-Luc cells): 1.14
- NOV gene expression (LNCaP/AR-Luc cells): 2.55
- ORM1 gene expression (LNCaP/AR-Luc cells): 1.27
- PLD1 gene expression (LNCaP/AR-Luc cells): 1.45
- PSA gene expression (LNCaP/AR-Luc cells): 0.60
- SLUG gene expression (LNCaP/AR-Luc cells): 1.13
- STEAP4 gene expression (LNCaP/AR-Luc cells): 0.88
- TMPRSS2 gene expression (LNCaP/AR-Luc cells): 0.74

SMILES: CNC(=O)c1ccc(N2C(=S)N(c3ccc(C#N)c(C(F)(F)F)c3)C(=O)C2(C)C)cc1F [Enzalutamide, enzalutamide]
- Effect on growth inhibitory activity of R1881 in Class 1 cells [1]: antagonized
- Ligand independent growth of Class 1 cells in presence of compound [1]: unaltered
- Antagonism of androgen dependent growth of Class 2 resistant lines [2]: only partially antagonized
- Agonist Transcriptional Reporter Assay (% Max Activity) (LNCaP cells [3]): + (‘+’ = <5)
- Antagonist Transcriptional Reporter Assay (% Max Activity) (LNCaP cells [3]): + (‘+’ = <5)
- Agonist Transcriptional Reporter Assay (% Max Activity) (LNCaP/AR(cs) cells): + (‘+’ = <5)
- Antagonist Transcriptional Reporter Assay (% Max Activity) (LNCaP/AR(cs) cells): + (‘+’ = <5)
- Agonist Transcriptional Reporter Assay (% Max Activity) [4]: + (‘+’ = <5)
- Antagonist Transcriptional Reporter Assay (% Max Activity) [4]: + (‘+’ = <5)
- Antagonist activity in probasin-luciferase reporter, Class 1 resistant cells [4]: effective antagonists
- AMIGO2 gene expression (LNCaP cells [5]): 1.20
- BDNF gene expression (LNCaP cells [5]): 0.85
- CAM2KN1 gene expression (LNCaP cells [5]): 1.39
- FASN gene expression (LNCaP cells [5]): 1.24
- HPGD gene expression (LNCaP cells [5]): 1.78
- NCAPD3 gene expression (LNCaP cells [5]): 1.20
- NKX3.1 gene expression (LNCaP cells [5]): 1.66
- NOV gene expression (LNCaP cells [5]): 2.57
- PLD1 gene expression (LNCaP cells [5]): 0.70
- PSA gene expression (LNCaP cells [5]): 1.69
- SLUG gene expression (LNCaP cells [5]): 2.35
- TMPRSS2 gene expression (LNCaP cells [5]): 1.68
- AMIGO2 gene expression (LNCaP ARN-509r1 cells): 0.99
- CAM2KN1 gene expression (LNCaP ARN-509r1 cells): 0.59
- FASN gene expression (LNCaP ARN-509r1 cells): 1.53
- FKBP5 gene expression (LNCaP ARN-509r1 cells): 9.45
- HPGD gene expression (LNCaP ARN-509r1 cells): 10.20
- NCAPD3 gene expression (LNCaP ARN-509r1 cells): 3.12
- NOV gene expression (LNCaP ARN-509r1 cells): 1.39
- ORM1 gene expression (LNCaP ARN-509r1 cells): 205.07
- PLD1 gene expression (LNCaP ARN-509r1 cells): 0.24
- PSA gene expression (LNCaP ARN-509r1 cells): 57.68
- SLUG gene expression (LNCaP ARN-509r1 cells): 42.52
- STEAP4 gene expression (LNCaP ARN-509r1 cells): 32.22
- TMPRSS2 gene expression (LNCaP ARN-509r1 cells): 23.75
- AMIGO2 gene expression (LNCaP ARN-509r2 cells): 0.63
- BDNF gene expression (LNCaP ARN-509r2 cells): 0.77
- CAM2KN1 gene expression (LNCaP ARN-509r2 cells): 0.38
- FASN gene expression (LNCaP ARN-509r2 cells): 0.93
- FKBP5 gene expression (LNCaP ARN-509r2 cells): 3.41
- HPGD gene expression (LNCaP ARN-509r2 cells): 4.56
- NCAPD3 gene expression (LNCaP ARN-509r2 cells): 1.35
- NKX3.1 gene expression (LNCaP ARN-509r2 cells): 6.28
- NOV gene expression (LNCaP ARN-509r2 cells): 0.71
- ORM1 gene expression (LNCaP ARN-509r2 cells): 23.75
- PLD1 gene expression (LNCaP ARN-509r2 cells): 0.29
- PSA gene expression (LNCaP ARN-509r2 cells): 2.48
- SLUG gene expression (LNCaP ARN-509r2 cells): 9.58
- TMPRSS2 gene expression (LNCaP ARN-509r2 cells): 4.86
- AMIGO2 gene expression (LNCaP/AR-Luc cells): 1.44
- BDNF gene expression (LNCaP/AR-Luc cells): 1.08
- CAM2KN1 gene expression (LNCaP/AR-Luc cells): 1.51
- FASN gene expression (LNCaP/AR-Luc cells): 1.40
- FKBP5 gene expression (LNCaP/AR-Luc cells): 1.46
- HPGD gene expression (LNCaP/AR-Luc cells): 2.51
- NCAPD3 gene expression (LNCaP/AR-Luc cells): 1.33
- NKX3.1 gene expression (LNCaP/AR-Luc cells): 1.68
- ORM1 gene expression (LNCaP/AR-Luc cells): 1.39
- PLD1 gene expression (LNCaP/AR-Luc cells): 1.33
- PSA gene expression (LNCaP/AR-Luc cells): 0.44
- SLUG gene expression (LNCaP/AR-Luc cells): 2.73
- STEAP4 gene expression (LNCaP/AR-Luc cells): 1.23
- TMPRSS2 gene expression (LNCaP/AR-Luc cells): 1.35

From patent US9617602B2, “Methods and compositions for determining resistance to androgen receptor therapy” (Aragon Pharmaceuticals, Inc., priority 2012, dated 2017)
